In patent US9464105B2, “Hydroxylated KRN7000 analogue and use thereof” (RIKEN, priority 2012, dated 2016):

Test system: IFN-γ and IL-4 in plasma
Experiment: Cytokine content in mouse plasma after intravenous administration of glycolipid (Cytometric Bead Array)
Assay type: in vivo, C57BL/6 mice
Conditions: tail vein, 100 μg/kg body weight, plasma up to 60 hr (FIG. 1, FIG. 2)
Protocol: Solutions of each of KRN7000, RCAI-147, RCAI-151, and RCAI-160 in dimethyl sulfoxide (DMSO) at a concentration of 1 mg/mL were prepared. The above-mentioned DMSO solutions were diluted 5-fold with 0.5% Tween 20 (Bio-Rad)-containing phosphate buffer (Invitrogen) and further diluted 20-fold with phosphate buffer, such that the dose became 100 μg/kg body weight when 200 μL was administered per mouse from the tail vein.
To three C57BL/6 mice per group was injected each prepared solution (200 μL) of RCAI-147, RCAI-151 and RCAI-160 into the tail vein (administration of about 2 μg per mouse). As a control substance, KRN7000 was used, and a solution (200 μL) of KRN7000 prepared in the same manner such that the dose became 100 μg/kg body weight was injected into the tail vein. The blood (80 μL) immediately before administration, and after lapse of 1, 3, 6, 12, 24, 32, 48 and 60 hr was collected from orbital plexus venosus, and plasma was prepared.
The content of each cytokine in plasma immediately before and after administration of each glycolipid was measured by Cytometric Bead Array (CBA) system (BD Biosciences) which is one of the ELISA methods.
The measurement results (mean) and standard deviation thereof (STDEV) of the content of IFN-γ in plasma immediately before administration, and after lapse of 3, 6, 12, 24, 32, 48 and 60 hr are shown in FIG. 1. The measurement results (mean) and standard deviation thereof (STDEV) of the content of IL-4 in plasma immediately before administration, and after lapse of 1, 3, 6, 12 and 24 hr from the administration are shown in FIG. 2.

Row | Structure (SMILES) | cytokine production induction activity (IFN-γ / IL-4 bias) as compared to KRN7000
1 | CCCCCCCCCCCCCCCCCCCCCCC[C@@H](O)[C@@H](O)C(=O)N[C@@H](COC1OC(CO)C(O)C(O)C1O)[C@H](O)[C@H](O)[C@@H](O)[C@@H](O)CCCCCCCCCCCC (stereo partly drawn) [RCAI-147, (2S,3S,4S,5S,6S)-2-[(2′R,3′R)-2′,3′-(dihydroxy)hexacosanoylamino]-3,4,5,6-(tetrahydroxy)octadecyl α-D-galactopyranoside] | cytokine production induction activity biased to the IL-4 as compared to KRN7000
2 | CCCCCCCCCCCCCCCCCCCCCCC[C@@H](O)[C@@H](O)C(=O)N[C@@H](COC1OC(CO)C(O)C(O)C1O)[C@H](O)[C@H](O)CCCCCCCCCCCCCC (stereo partly drawn) [RCAI-151, (2S,3S,4R)-3,4-dihydroxy-2-[(2′R,3′R)-2′,3′-dihydroxyhexacosanoylamino]octadecyl α-D-galactopyranoside] | cytokine production induction activity biased to the IL-4 as compared to KRN7000
3 | CCCCCCCCCCCCCCCCCCCCCC[C@@H](O)[C@@H](O)[C@@H](O)C(=O)N[C@@H](CO[C@H]1O[C@H](CO)[C@H](O)[C@H](O)[C@H]1O)[C@H](O)[C@H](O)CCCCCCCCCCCCCC [RCAI-160, (2S,3S,4R)-2-[(2′R,3′R,4′R)-2′,3′,4′-trihydroxyhexacosanoyl]amino-3,4-di-hydroxyoctadecyl α-D-galactopyranoside] | cytokine production induction activity biased to the IL-4 as compared to KRN7000
